Data published in the kinase profiling compilation of Christmann-Franck et al. (2016).

What was measured:
Test in all cases: radiometric filter-binding kinase assay
[1] = target: INSRR (human) (UniProt P14616)
[2] = test system: LCK (mouse); settings: accession and sequence are those of the human protein
[3] = test system: RPS6KB1 (human), P23443 [T412E]
[4] = target: MKNK1 (human) (UniProt Q9BUB5)
[5] = test system: ROCK2 (rat); settings: accession and sequence are those of the human protein
[6] = target: MAPK11 (human) (UniProt Q15759)
[7] = target: MAPK13 (human) (UniProt O15264)
[8] = target: FGFR1 (human) (UniProt P11362)
[9] = target: MAP2K1 (human) (UniProt Q02750)
[10] = target: DYRK3 (human) (UniProt O43781)
DYRK3 (human), sequence (O43781 whole entry, looked up): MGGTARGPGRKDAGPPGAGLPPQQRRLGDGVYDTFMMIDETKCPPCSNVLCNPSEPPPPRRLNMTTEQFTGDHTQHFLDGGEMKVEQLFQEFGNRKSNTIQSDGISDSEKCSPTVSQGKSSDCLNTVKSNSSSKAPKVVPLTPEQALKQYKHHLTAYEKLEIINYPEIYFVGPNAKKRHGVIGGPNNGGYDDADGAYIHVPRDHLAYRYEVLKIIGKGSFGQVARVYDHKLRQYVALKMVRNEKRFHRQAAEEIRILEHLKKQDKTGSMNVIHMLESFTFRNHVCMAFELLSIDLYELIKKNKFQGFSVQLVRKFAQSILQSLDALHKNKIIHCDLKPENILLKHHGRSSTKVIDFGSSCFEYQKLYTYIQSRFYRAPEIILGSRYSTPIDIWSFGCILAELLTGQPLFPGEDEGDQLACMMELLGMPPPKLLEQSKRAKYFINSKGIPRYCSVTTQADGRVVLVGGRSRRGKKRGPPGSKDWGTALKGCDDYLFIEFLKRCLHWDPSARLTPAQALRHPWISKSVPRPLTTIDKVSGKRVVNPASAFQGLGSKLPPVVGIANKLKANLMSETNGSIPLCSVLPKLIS

[11] = target: PIM3 (human) (UniProt Q86V86)
[12] = target: NEK2 (human) (UniProt P51955)
NEK2 (human), sequence (P51955 whole entry, looked up): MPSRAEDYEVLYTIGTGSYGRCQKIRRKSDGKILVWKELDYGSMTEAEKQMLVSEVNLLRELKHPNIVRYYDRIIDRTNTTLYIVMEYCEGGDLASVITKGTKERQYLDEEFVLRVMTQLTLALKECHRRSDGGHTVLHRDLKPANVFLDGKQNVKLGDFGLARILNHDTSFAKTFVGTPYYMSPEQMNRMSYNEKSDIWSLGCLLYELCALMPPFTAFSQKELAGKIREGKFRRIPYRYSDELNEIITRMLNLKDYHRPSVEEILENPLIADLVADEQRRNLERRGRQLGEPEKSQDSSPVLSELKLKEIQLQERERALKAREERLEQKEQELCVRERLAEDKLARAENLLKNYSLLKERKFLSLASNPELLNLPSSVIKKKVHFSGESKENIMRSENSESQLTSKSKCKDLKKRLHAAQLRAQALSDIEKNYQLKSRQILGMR

[13] = target: GSK3B (human) (UniProt P49841)
[14] = target: CSNK2A1 (human) (UniProt P68400)
[15] = target: EPHA2 (human) (UniProt P29317)
EPHA2 (human), sequence (P29317 whole entry, looked up): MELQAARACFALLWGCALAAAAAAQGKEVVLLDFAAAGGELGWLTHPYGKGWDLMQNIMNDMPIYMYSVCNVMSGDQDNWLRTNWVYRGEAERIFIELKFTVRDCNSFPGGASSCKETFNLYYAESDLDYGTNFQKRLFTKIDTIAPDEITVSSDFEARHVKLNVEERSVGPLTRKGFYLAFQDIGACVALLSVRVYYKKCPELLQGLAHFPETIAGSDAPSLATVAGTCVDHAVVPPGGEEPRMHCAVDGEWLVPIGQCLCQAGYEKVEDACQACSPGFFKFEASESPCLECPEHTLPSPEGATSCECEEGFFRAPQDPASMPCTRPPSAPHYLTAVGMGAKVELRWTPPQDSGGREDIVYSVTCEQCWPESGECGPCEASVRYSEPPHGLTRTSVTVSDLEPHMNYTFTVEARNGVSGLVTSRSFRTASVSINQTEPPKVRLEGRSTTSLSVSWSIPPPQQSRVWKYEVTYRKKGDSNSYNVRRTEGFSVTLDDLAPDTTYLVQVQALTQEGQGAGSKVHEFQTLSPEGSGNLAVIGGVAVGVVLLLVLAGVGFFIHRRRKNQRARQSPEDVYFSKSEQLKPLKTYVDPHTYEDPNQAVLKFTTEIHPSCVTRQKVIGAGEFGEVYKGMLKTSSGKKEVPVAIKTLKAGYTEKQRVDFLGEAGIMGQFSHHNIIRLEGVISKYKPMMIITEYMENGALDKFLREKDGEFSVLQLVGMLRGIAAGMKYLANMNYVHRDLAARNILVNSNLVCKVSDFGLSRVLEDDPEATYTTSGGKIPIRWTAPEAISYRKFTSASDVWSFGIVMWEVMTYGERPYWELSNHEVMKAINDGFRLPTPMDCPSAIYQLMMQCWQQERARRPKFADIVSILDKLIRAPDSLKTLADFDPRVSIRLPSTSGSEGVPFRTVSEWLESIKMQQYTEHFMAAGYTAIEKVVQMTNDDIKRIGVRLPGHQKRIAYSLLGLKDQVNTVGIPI

[16] = target: TBK1 (human) (UniProt Q9UHD2)
[17] = target: PKN2 (human) (UniProt Q16513)
[18] = target: MYLK (human) (UniProt Q15746)
MYLK (human), sequence (Q15746 whole entry, looked up): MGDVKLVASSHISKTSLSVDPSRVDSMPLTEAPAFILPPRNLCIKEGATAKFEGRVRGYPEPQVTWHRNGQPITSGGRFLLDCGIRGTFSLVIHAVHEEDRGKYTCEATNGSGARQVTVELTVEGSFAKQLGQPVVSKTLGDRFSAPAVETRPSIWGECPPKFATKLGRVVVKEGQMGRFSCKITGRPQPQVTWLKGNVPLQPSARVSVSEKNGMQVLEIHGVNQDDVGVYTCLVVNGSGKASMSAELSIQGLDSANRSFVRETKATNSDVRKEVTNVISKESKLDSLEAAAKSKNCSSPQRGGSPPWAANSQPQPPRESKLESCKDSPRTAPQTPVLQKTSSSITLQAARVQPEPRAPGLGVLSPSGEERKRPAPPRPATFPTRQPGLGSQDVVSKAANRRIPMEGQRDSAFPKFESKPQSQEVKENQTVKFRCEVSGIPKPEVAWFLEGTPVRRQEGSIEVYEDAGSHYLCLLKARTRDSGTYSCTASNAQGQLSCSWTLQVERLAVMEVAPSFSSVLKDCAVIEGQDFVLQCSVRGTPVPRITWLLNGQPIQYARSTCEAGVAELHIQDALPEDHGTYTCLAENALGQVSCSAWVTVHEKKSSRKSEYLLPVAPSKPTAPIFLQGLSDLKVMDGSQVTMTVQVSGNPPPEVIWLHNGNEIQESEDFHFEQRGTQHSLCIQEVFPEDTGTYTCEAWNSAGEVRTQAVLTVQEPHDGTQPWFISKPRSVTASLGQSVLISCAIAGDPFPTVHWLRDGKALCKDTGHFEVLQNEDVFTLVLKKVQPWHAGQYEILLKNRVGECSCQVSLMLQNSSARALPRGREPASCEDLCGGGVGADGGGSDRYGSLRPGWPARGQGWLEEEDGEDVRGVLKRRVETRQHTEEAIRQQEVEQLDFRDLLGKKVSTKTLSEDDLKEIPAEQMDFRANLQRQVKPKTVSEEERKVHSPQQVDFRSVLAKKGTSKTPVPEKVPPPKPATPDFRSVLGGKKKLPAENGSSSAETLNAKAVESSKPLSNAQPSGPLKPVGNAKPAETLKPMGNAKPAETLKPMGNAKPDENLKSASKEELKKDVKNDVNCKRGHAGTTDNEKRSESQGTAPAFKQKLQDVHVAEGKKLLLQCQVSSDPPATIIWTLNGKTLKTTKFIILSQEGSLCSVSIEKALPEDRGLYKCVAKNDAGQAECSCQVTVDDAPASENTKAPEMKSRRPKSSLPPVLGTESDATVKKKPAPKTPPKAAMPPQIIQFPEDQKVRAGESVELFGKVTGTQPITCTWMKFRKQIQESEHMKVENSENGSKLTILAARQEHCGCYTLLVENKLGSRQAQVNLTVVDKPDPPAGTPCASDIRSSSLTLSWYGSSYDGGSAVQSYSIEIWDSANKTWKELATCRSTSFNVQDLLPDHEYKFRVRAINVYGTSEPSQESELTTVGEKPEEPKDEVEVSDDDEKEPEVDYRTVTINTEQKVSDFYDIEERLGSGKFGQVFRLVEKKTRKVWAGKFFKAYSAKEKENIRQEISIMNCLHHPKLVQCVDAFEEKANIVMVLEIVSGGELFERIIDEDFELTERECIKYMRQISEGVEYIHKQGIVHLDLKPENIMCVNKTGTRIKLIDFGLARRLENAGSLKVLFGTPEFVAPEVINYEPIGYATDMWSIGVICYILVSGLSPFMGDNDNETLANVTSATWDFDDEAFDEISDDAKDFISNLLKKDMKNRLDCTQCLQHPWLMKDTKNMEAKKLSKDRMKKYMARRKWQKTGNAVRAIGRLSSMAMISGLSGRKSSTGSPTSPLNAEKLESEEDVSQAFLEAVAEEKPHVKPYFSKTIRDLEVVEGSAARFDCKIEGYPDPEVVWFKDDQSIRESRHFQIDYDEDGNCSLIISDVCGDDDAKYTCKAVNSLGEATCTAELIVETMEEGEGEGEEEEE

[19] = test system: AKT2 (human), P31751 [S474D]
[20] = target: PIM2 (human) (UniProt Q9P1W9)
[21] = target: SRPK1 (human) (UniProt Q96SB4)
[22] = target: PHKG1 (human) (UniProt Q16816)
PHKG1 (human), sequence (Q16816 whole entry, looked up): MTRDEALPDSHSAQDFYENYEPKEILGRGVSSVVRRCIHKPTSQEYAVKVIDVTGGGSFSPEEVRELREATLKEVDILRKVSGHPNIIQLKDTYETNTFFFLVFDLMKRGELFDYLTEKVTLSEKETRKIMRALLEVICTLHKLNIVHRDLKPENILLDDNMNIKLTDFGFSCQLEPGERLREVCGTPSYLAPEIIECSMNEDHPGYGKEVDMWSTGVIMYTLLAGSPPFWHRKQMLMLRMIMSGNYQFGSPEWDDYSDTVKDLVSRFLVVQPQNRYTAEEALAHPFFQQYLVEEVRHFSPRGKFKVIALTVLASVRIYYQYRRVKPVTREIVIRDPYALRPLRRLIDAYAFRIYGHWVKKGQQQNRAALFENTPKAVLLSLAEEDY

[23] = target: INSR (human) (UniProt P06213)
[24] = target: SYK (human) (UniProt P43405)
[25] = test system: AKT1 (human), P31749 [S473D]
[26] = target: NEK6 (human) (UniProt Q9HC98)
NEK6 (human), sequence (Q9HC98 whole entry, looked up): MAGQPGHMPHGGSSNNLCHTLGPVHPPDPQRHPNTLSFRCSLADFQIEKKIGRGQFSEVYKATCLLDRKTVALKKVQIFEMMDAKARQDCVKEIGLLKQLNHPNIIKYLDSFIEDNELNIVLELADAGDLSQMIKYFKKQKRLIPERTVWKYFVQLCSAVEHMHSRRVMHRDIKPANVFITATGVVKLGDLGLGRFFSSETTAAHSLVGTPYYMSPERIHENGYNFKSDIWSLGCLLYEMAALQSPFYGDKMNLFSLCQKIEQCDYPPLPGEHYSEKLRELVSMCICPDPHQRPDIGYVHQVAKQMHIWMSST

`C/C(=C1/C(=O)Nc2ccc(NC(N)=O)cc21)c1ccc[nH]1` gave a residual activity ([1]; compound 0.001 µM) of 91%, a residual activity ([1]; compound 0.01 µM) of 75% and a residual activity ([1]; compound 0.1 µM) of 47%. It also gave a residual activity ([2]; compound 0.001 µM) of 97%, a residual activity ([2]; compound 0.01 µM) of 95% and a residual activity ([2]; compound 0.1 µM) of 64%. It also gave a residual activity ([3]; compound 0.001 µM) of 95%, a residual activity ([3]; compound 0.01 µM) of 91% and a residual activity ([3]; compound 0.1 µM) of 83%. The residual activity ([4]; compound 0.001 µM) was 92%, the residual activity ([4]; compound 0.01 µM) was 87% and the residual activity ([4]; compound 0.1 µM) was 82%. It also gave a residual activity ([5]; compound 0.001 µM) of 88%, a residual activity ([5]; compound 0.01 µM) of 90% and a residual activity ([5]; compound 0.1 µM) of 84%. It also gave a residual activity ([6]; compound 0.001 µM) of 104%, a residual activity ([6]; compound 0.01 µM) of 100% and a residual activity ([6]; compound 0.1 µM) of 105%. The residual activity ([7]; compound 0.001 µM) was 96%, the residual activity ([7]; compound 0.01 µM) was 89% and the residual activity ([7]; compound 0.1 µM) was 86%. The residual activity ([8]; compound 0.001 µM) was 96%, the residual activity ([8]; compound 0.01 µM) was 61% and the residual activity ([8]; compound 0.1 µM) was 18%. It also gave a residual activity ([9]; compound 0.001 µM) of 87%, a residual activity ([9]; compound 0.01 µM) of 33% and a residual activity ([9]; compound 0.1 µM) of 7%. For the same compound, the residual activity ([10]; compound 0.001 µM) was 83%, the residual activity ([10]; compound 0.01 µM) was 74% and the residual activity ([10]; compound 0.1 µM) was 33%. For the same compound, the residual activity ([11]; compound 0.001 µM) was 96%, the residual activity ([11]; compound 0.01 µM) was 73% and the residual activity ([11]; compound 0.1 µM) was 25%. For the same compound, the residual activity ([12]; compound 0.001 µM) was 92%, the residual activity ([12]; compound 0.01 µM) was 92% and the residual activity ([12]; compound 0.1 µM) was 86%. It also gave a residual activity ([13]; compound 0.01 µM) of 92%, a residual activity ([13]; compound 0.1 µM) of 49% and a residual activity ([14]; compound 0.001 µM) of 92%. The residual activity ([14]; compound 0.01 µM) was 91%, the residual activity ([14]; compound 0.1 µM) was 86% and the residual activity ([15]; compound 0.001 µM) was 97%. The residual activity ([15]; compound 0.01 µM) was 101%, the residual activity ([15]; compound 0.1 µM) was 87% and the residual activity ([16]; compound 0.001 µM) was 99%. It also gave a residual activity ([16]; compound 0.01 µM) of 83%, a residual activity ([16]; compound 0.1 µM) of 43% and a residual activity ([17]; compound 0.001 µM) of 67%. It also gave a residual activity ([17]; compound 0.01 µM) of 61%, a residual activity ([17]; compound 0.1 µM) of 36% and a residual activity ([18]; compound 0.001 µM) of 90%. It also gave a residual activity ([18]; compound 0.01 µM) of 89%, a residual activity ([18]; compound 0.1 µM) of 65% and a residual activity ([19]; compound 0.001 µM) of 79%. It also gave a residual activity ([19]; compound 0.01 µM) of 82%, a residual activity ([20]; compound 0.01 µM) of 92% and a residual activity ([20]; compound 0.1 µM) of 65%. The residual activity ([21]; compound 0.001 µM) was 98%, the residual activity ([21]; compound 0.01 µM) was 96% and the residual activity ([21]; compound 0.1 µM) was 93%. For the same compound, the residual activity ([22]; compound 0.001 µM) was 97%, the residual activity ([22]; compound 0.01 µM) was 66% and the residual activity ([22]; compound 0.1 µM) was 18%. The residual activity ([23]; compound 0.01 µM) was 102%, the residual activity ([23]; compound 0.1 µM) was 110% and the residual activity ([24]; compound 0.001 µM) was 100%. For the same compound, the residual activity ([24]; compound 0.01 µM) was 104%, the residual activity ([24]; compound 0.1 µM) was 97% and the residual activity ([25]; compound 0.001 µM) was 85%. It also gave a residual activity ([25]; compound 0.01 µM) of 76%, a residual activity ([26]; compound 0.001 µM) of 86% and a residual activity ([26]; compound 0.01 µM) of 84%. For the same compound, the residual activity ([26]; compound 0.1 µM) was 82%.
